Assay results taken from patent publication US4704403A, “3-(2,2,2-trisubstituted hydrazinium) propionates” (priority 1983, dated 1987).

Assays:
[1] = tested on: hypertensive male rats of the Akamoto-Aoki line; test: Variation of arterial pressure upon intraperitoneal administration to hypertensive rats; assay type: in vivo
Protocol: The study of hypotensive properties of the compounds of this invention has been carried out of hypertensive male rats of the Akamoto-Aoki line aged 25-30 weeks. The animals were divided into groups (7-10 rats in each) and for 2 weeks before the beginning of the experiment they were subjected to an every-day training for adaptation to the unit for measurements of the arterial pressure. The systolic and diastolic arterial pressure were measured indirectly on the tail artery. The level of the arterial pressure prior to administration of the test compounds was measured by way of a triple determination thereof--2 days, one day and right before the administration of the preparation. The compounds were administered intraperitoneally in the form of a 2.5% aqueous solution or a 2.5% suspension in Twin-80 in the dose of 50 mg/kg. The measurement of the arterial pressure was effected 30 minutes, 1, 2, 3 and 4 hours and in some cases 24 hours after the administration of the preparation. For a number of compounds featuring a high efficiency, also determined was the dose causing reduction of the arterial pressure by 30% as compared with the starting level (ED30). The statistical processing of the data obtained was carried out using the Student certainty criterion.

[2] = tested on: spontaneously hypertensive rats of the Akamoto-Aoki line; test: Systolic arterial pressure of spontaneously hypertensive rats upon a repeated peroral administration; assay type: in vivo
Protocol: Thus, after a four-days course of administration (once a day, per os) of the compounds according to the present invention an essential reduction of the arterial pressure in the test animals is observed which is not returned to the initial level even an expiration of four days after discontinuation of the preparation administration, whereas the hypotensive effect of nifedipine is manifested for only 8 hours.

[3] = tested on: arrhythmia caused by introduction of calcium chloride; test: Antiarrhythmic activity on the model of arrhythmia caused by calcium chloride (antagonism towards calcium); assay type: in vivo, mice; conditions: for Dose of calcium chloride causing arrhythmia: control 85.0; for Dose of calcium chloride causing heart arrest: control 100.0
Protocol: In experiments on white mice with a mass of 18-25 g narcotized with urethane an electrocardiogram was recorded in the second standard lead. A 2% solution of calcium chloride was introduced into the tail vein at a constant rate (0.01 ml for 2 seconds). The dose of calcium chloride causing arrhythmia and the dose causing heart arrest were determined. In experimental groups the test compounds were administered 20-40 minutes prior to the beginning of the experiment intraperitoneally.

[4] = tested on: hemodynamic effects of neoepinephrine; test: Effect on vegetative responses: neoepinephrine; assay type: in vivo, cats; conditions: neoepinephrine 0.2 μg/kg
Protocol: (§1) The effect of the compounds according to the present invention on the arterial pressure and vegetative responses has been studied in acute experiments on cats with a mass of 2.8-4.0 kg narcotized by α-glucochloralose (90 mg/kg) and urethane (100 mg/kg intraperitoneally).
(§2) The arterial pressure in the common carotid artery, breathing and electrocardiogram of the second standard lead were recorded.
(§3) The effect of the compounds according to the present invention on hemodynamic effects of acetylcholine (0.1 μg/kg) neoepinephrine (0.2 μg/kg), noradrenaline (1 μg/kg) and histamine (1.5 μg/kg) was also studied. In some experiments instead of neoepinephrine and noradrenaline adrenaline was used (1 μg/kg). The peripheral part of the vagus nerve was irritated by supromaximum square pulses of the frequency of 30 Hz and duration of 0.1 ms.

[5] = tested on: white mice; test: Acute toxicity upon intraperitoneal administration to white mice; assay type: in vivo; conditions: i.p.
Protocol: (§4) The acute toxicity of the compounds according to the present invention was studied on white mice of both sexes with a mass of 20-25 g. A saturated aqueous solution of the compounds or a suspension in Tween-80 was administered to the animals intraperitoneally. The observation over the animals was carried out for 14 days. The results obtained were processed following the Litchfield-Wilkoxon method. As it follows from the data shown in Table 5 hereinbelow, the studied compounds have a very low acute toxicity, thus providing a large spectrum of the therapeutic effect.

[6] = as above; assay type: in vivo; conditions: mouse, in vivo, ip, 14 days observation, average values with confidential limits at P=0.05
Protocol: as §4

[7] = tested on: spontaneously hypertensive rats of the Akamoto-Aoki line; test: Hypotensive activity on spontaneously hypertensive rats at a single peroral administration; assay type: in vivo; conditions: for Systolic arterial pressure: ethyl 40 mg/kg (initial 198), allyl 50 mg/kg (initial 184), benzyl 40 mg/kg (initial 196); for Systolic arterial pressure, percent in parentheses (decrease from initial): ethyl 40, allyl 50, benzyl 40 mg/kg
[8] = tested on: Angiotension; test: Effect on vegetative responses: angiotensin; assay type: in vivo, cats; conditions: dose 5 (unit not given)
[9] = tested on: hemodynamic effects of acetylcholine; test: Effect on vegetative responses: acetylcholine; assay type: in vivo, cats; conditions: dose "-10" [sic] (unit not given); acetylcholine 0.1 μg/kg
Protocol: as §1, §2, §3

[10] = tested on: hemodynamic effects of noradrenaline; test: Effect on vegetative responses: noradrenaline; assay type: in vivo, cats; conditions: noradrenaline 1 μg/kg
Protocol: as §1, §2, §3

[11] = tested on: arterial pressure; test: Effect on the arterial pressure in narcotized cats; assay type: in vivo
Protocol: as §1, §2, §3

[12] = 30 minutes, 50 mg/kg i.p. (nifedipine 1 mg/kg i.p.)
[13] = 1 hour, 50 mg/kg i.p. (nifedipine 1 mg/kg i.p.)
[14] = 2 hours, 50 mg/kg i.p. (nifedipine 1 mg/kg i.p.)
[15] = 4 hours, 50 mg/kg i.p. (nifedipine 1 mg/kg i.p.)
[16] = after four-days p.o. course, benzyl 40 mg/kg, allyl 50 mg/kg, nifedipine dose not given
[17] = p.o. once a day, benzyl 40 mg/kg, allyl 50 mg/kg, nifedipine dose not given
[18] = p.o., benzyl 40 mg/kg, allyl 50 mg/kg, nifedipine dose not given
[19] = dose "-10" [sic] (unit not given)

C=CC[N+](C)(C)NCCC(=O)[O-] [3-(2,2-dimethyl-2-allylhydrazinium)propionate semihydrate]
Average variation of the diastolic arterial pressure [1, 12]: -10 % of the initial | Average variation of the systolic arterial pressure [1, 12]: -12 % of the initial | Average variation of the diastolic arterial pressure [1, 13]: -23 % of the initial | Average variation of the systolic arterial pressure [1, 13]: -12 % of the initial | Average variation of the diastolic arterial pressure [1, 14]: -29 % of the initial | Average variation of the systolic arterial pressure [1, 14]: -18 % of the initial | Average variation of the diastolic arterial pressure [1, 15]: -31 % of the initial | Average variation of the systolic arterial pressure [1, 15]: -14 % of the initial | Average variation of the diastolic arterial pressure ([1]; 24 hours, 50 mg/kg i.p.): -7 % of the initial | Average variation of the systolic arterial pressure ([1]; 24 hours, 50 mg/kg i.p.): -3 % of the initial | Systolic arterial pressure, 5th day [2, 16]: 126 mm Hg | Systolic arterial pressure, 8th day [2, 16]: 168 mm Hg | Systolic arterial pressure, 10th day [2, 16]: 175 mm Hg | Systolic arterial pressure, 2nd day after administration ([2]; p.o. once a day, allyl 50 mg/kg, nifedipine dose not given): 132.8 mm Hg | Systolic arterial pressure, 1st day after administration ([2]; p.o. once a day, benzyl 40 mg/kg (initial 195.8), allyl 50 mg/kg (initial 176.6), nifedipine dose not given (initial 184.0)): 150.6 mm Hg | Systolic arterial pressure, 2nd day before administration [2, 17]: 166.8 mm Hg | Systolic arterial pressure, 3rd day after administration [2, 17]: 118 mm Hg | Systolic arterial pressure, 4th day after administration [2, 17]: 118.6 mm Hg | Systolic arterial pressure, 4th day before administration [2, 17]: 129 mm Hg | Percent in parentheses (change of systolic pressure from initial), 2nd day after administration ([2]; p.o., allyl 50 mg/kg, nifedipine dose not given): 25% | Percent in parentheses (change of systolic pressure from initial), 1st day after administration [2, 18]: 15% | Percent in parentheses (change of systolic pressure from initial), 2nd day before administration [2, 18]: 6% | Percent in parentheses (change of systolic pressure from initial), 3rd day after administration [2, 18]: 33% | Percent in parentheses (change of systolic pressure from initial), 4th day after administration [2, 18]: 33% | Percent in parentheses (change of systolic pressure from initial), 4th day before administration [2, 18]: 27% | Percent in parentheses (change of systolic pressure from initial), 5th day [2, 18]: 29% | Percent in parentheses (change of systolic pressure from initial), 8th day [2, 18]: 5% | Dose of calcium chloride causing arrhythmia ([3]; compound dose 5 mg/kg i.p.): 99.6 | Dose of calcium chloride causing heart arrest ([3]; compound dose 5 mg/kg i.p.): 118.0 | Dose of calcium chloride causing arrhythmia ([3]; compound dose 25 mg/kg i.p.): 95.2 | Dose of calcium chloride causing heart arrest ([3]; compound dose 25 mg/kg i.p.): 103.0 | Hemodynamic effect, Neoepinephrine ([4]; dose 5 (unit not given)): -20% | Relative toxicity with respect to quinidine (LD50 / LD50 of quinidine) [5]: 67.9 | LD50 at 336 h [6]: 10600 mg/kg | Systolic arterial pressure ([7]; 3 hours after single p.o.): 153 mm Hg | Systolic arterial pressure, percent in parentheses (decrease from initial) ([7]; 3 hours after single p.o.): 17% | Systolic arterial pressure ([7]; 5 hours after single p.o.): 155 mm Hg | Systolic arterial pressure, percent in parentheses (decrease from initial) ([7]; 5 hours after single p.o.): 16% | Systolic arterial pressure ([7]; 24 hours after single p.o.): 170 mm Hg | Systolic arterial pressure, percent in parentheses (decrease from initial) ([7]; 24 hours after single p.o.): 8% | Hemodynamic effect, Angiotension [8]: -70%

CCCCCCCCCCCCCCCC[N+](C)(C)NCCC(=O)[O-] [3-(2,2-dimethyl-2-hexadecylhydrazinium)propionate]
Variation of the effect of acetylcholine [9]: -10% | Dose of calcium chloride causing arrhythmia ([3]; compound dose 5 mg/kg i.p.): 130.5 | Dose of calcium chloride causing heart arrest ([3]; compound dose 5 mg/kg i.p.): 140.6 | Dose of calcium chloride causing arrhythmia ([3]; compound dose 25 mg/kg i.p.): 102.7 | Dose of calcium chloride causing heart arrest ([3]; compound dose 25 mg/kg i.p.): 124.5 | Hemodynamic effect, Noradrenaline ([10]; dose 3 (unit not given)): -15% | Hemodynamic effect, Noradrenaline [10, 19]: -80% | Hemodynamic effect, Neoepinephrine ([4]; dose 3 (unit not given)): -10% | Hemodynamic effect, Neoepinephrine [4, 19]: -30% | Relative toxicity with respect to quinidine (LD50 / LD50 of quinidine) [5]: 9.3 | LD50 at 336 h [6]: 1450 mg/kg | Variation of arterial pressure ([11]; dose 3 (unit not given)): -5% | Variation of arterial pressure [11, 19]: -3%
